{
  "source": "patent US8399378B2",
  "about": "“Use of neonicotinoids in pest control” (Syngenta Crop Protection LLC, priority 1998, dated 2013)",
  "tested_on": "Spodoptera littoralis",
  "experiment": "Spray test on young cotton plants, action against Spodoptera littoralis larvae",
  "format": "in vivo",
  "excerpt": "Young transgenic cotton plants which express the δ-endotoxin CryIIIA are sprayed with an aqueous emulsion spray mixture comprising 100, 50, 10, 5, 1 ppm of imidacloprid respectively. After the spray coating has dried on, the cotton plants are populated with 10 adult Anthonomus grandis, 10 Spodoptera littoralis larvae or 10 Heliothis virescens larvae respectively and introduced into a plastic container. Evaluation takes place 3 to 10 days later.\nYoung transgenic cotton plants which express the δ-endotoxin CryIIIA are sprayed with an aqueous emulsion spray mixture comprising 100, 50, 10, 5, 1 ppm of thiamethoxam respectively. After the spray coating has dried on, the cotton plants are populated with 10 adult Anthonomus grandis, 10 Spodoptera littoralis larvae or 10 Heliothis virescens larvae respectively and introduced into a plastic container. Evaluation takes place 3 to 10 days later.\nYoung transgenic cotton plants which express the δ-endotoxin CryIIIA are sprayed with an aqueous emulsion spray mixture comprising 100, 50, 10, 5, 1 ppm of Ti-435 respectively. After the spray coating has dried on, the cotton plants are populated with 10 adult Anthonomus grandis, 10 Spodoptera littoralis larvae or 10 Heliothis virescens larvae respectively and introduced into a plastic container. Evaluation takes place 3 to 10 days later.\nYoung transgenic cotton plants which express the δ-endotoxin CryIa(c) are sprayed with an aqueous emulsion spray mixture comprising 100, 50, 10, 5, 1 ppm of Ti-435 respectively. After the spray coating has dried on, the cotton plants are populated with 10 adult Anthonomus grandis, 10 Spodoptera littoralis larvae or 10 Heliothis virescens larvae respectively and introduced into a plastic container. Evaluation takes place 3 to 10 days later.\nYoung transgenic cotton plants which express the δ-endotoxin CryIa(c) are sprayed with an aqueous emulsion spray mixture comprising 100, 50, 10, 5, 1 ppm of thiamethoxam respectively. After the spray coating has dried on, the cotton plants are populated with 10 adult Anthonomus grandis, 10 Spodoptera littoralis larvae or 10 Heliothis virescens larvae respectively and introduced into a plastic container. Evaluation takes place 3 to 10 days later.\nYoung transgenic cotton plants which express the δ-endotoxin CryIa(c) are sprayed with an aqueous emulsion spray mixture comprising 100, 50, 10, 5, 1 ppm of imidacloprid respectively. After the spray coating has dried on, the cotton plants are populated with 10 adult Anthonomus grandis, 10 Spodoptera littoralis larvae or 10 Heliothis virescens larvae respectively and introduced into a plastic container. Evaluation takes place 3 to 10 days later.",
  "data": [
    {"smiles": "CN1COCN(Cc2cnc(Cl)s2)/C1=N\\[N+](=O)[O-]", "note": "[thiamethoxam, 5-(2-Chlorthiazol-5-ylmethyl)-3-methyl-4-nitroimino-perhydro-1,3,5-oxadiazin]", "values": [
      {"measurement": "control of the tested insects (percentage reduction in population or feeding damage, % action)", "setting": "non-transgenic cotton treated with compound and conventional CryIIIA-toxin, each 100, 50, 10, 5, 1 ppm, comparison arm for CryIa(c) cotton", "value": "insufficient"},
      {"measurement": "control of the tested insects (percentage reduction in population or feeding damage, % action)", "setting": "transgenic cotton expressing δ-endotoxin CryIa(c), spray 100, 50, 10, 5, 1 ppm, evaluation 3 to 10 days", "value": "superior"}
    ]}
  ]
}
